Source: ChEMBL document CHEMBL4402526, “Design and Synthesis of Fungal-Selective Resorcylate Aminopyrazole Hsp90 Inhibitors” (J Med Chem, 2020)
Active and inactive are the calls of the source. No rule for the calls is given here.

Key:
[1] = test system: Candida albicans; experiment: Antifungal activity against Candida albicans clinical isolate 2 assessed as fungal growth inhibition at <= […] uM measured after 48 hrs by resazurin assay; assay type: functional, organism-based
[2] = test system: Cryptococcus neoformans; experiment: Antifungal activity against Cryptococcus neoformans H99 assessed as fungal growth inhibition at <= […] uM measured after 48 hrs by resazurin assay; assay type: functional, organism-based

| Compound | Activity [1] | Activity [2] |
| --- | --- | --- |
| COc1ccc(Cn2nc(-c3ccccc3)cc2Nc2cc(O)cc(O)c2C(=O)N2Cc3cn[nH]c3C2)cc1 | Active | Active |
| O=C(c1c(O)cc(O)cc1Nc1ccnn1CC1CCCCC1)N1Cc2cccnc2C1 | Active | Active |
| COc1ccc(Cn2nc(C)cc2Nc2cc(O)cc(O)c2C(=O)N2Cc3ccc(NC4CCN(C)CC4)cc3C2)cc1 | Active | Active |
| Cc1ccc(Cn2nc(C)cc2Nc2cc(O)cc(O)c2C(=O)N2Cc3ccccc3C2)cc1 | Active | Active |
| Cn1nc(-c2cccc(C(F)(F)F)c2)cc1Nc1cc(O)cc(O)c1C(=O)N1Cc2cn[nH]c2C1 | Active | Active |
| COc1ccc(Cn2nc(C)cc2Nc2cc(O)cc(O)c2C(=O)N2Cc3cn[nH]c3C2)cc1 | Active | Active |
| CC(C)n1nccc1Nc1cc(O)cc(O)c1C(=O)N1Cc2ccccc2C1 | Active | Active |
| O=C(c1c(O)cc(O)cc1Nc1ccnn1Cc1ccc(C(F)(F)F)cc1)N1Cc2cn[nH]c2C1 | Active | Active |
| O=C(c1c(O)cc(O)cc1Nc1ccnn1-c1ccccc1)N1Cc2cn[nH]c2C1 | Active | Active |
| Cn1nc(-c2ccc(C(C)(C)C)cc2)cc1Nc1cc(O)cc(O)c1C(=O)N1Cc2ccccc2C1 | Active | Active |
| Cn1nc(C2CCCCC2)cc1Nc1cc(O)cc(O)c1C(=O)N1Cc2cccnc2C1 | Active | Active |
| CCc1cc(Nc2cc(O)cc(O)c2C(=O)N2Cc3cn[nH]c3C2)n(Cc2ccc(OC)cc2)n1 | Active | Active |
| O=C(c1c(O)cc(O)cc1Nc1ccnn1Cc1ccccc1)N1Cc2cccnc2C1 | Active | Active |
| COc1ccc(-c2cc(Nc3cc(O)cc(O)c3C(=O)N3Cc4cccnc4C3)n(C)n2)cc1 | Active | Active |
| COc1ccc(Cn2nccc2Nc2cc(O)cc(O)c2C(=O)N2Cc3ccccc3C2)cc1 | Active | Active |
| O=C(c1c(O)cc(O)cc1Nc1ccnn1Cc1ccco1)N1Cc2cccnc2C1 | Active | Active |
| COc1ccc(Cn2nc(-c3ccccc3)cc2Nc2cc(O)cc(O)c2C(=O)N2Cc3ccc(NC4CCN(C)CC4)cc3C2)cc1 | Active | Active |
| O=C(c1c(O)cc(O)cc1Nc1ccnn1Cc1cccnc1)N1Cc2ccccc2C1 | Active | Active |
| CCc1cc(Nc2cc(O)cc(O)c2C(=O)N2Cc3cccnc3C2)n(Cc2ccc(OC)cc2)n1 | Active | Active |
| Cc1ccc(-c2cc(Nc3cc(O)cc(O)c3C(=O)N3Cc4cn[nH]c4C3)n(C)n2)cc1 | Active | Active |
| COc1ccc(Cn2nc(-c3ccccc3)cc2Nc2cc(O)cc(O)c2C(=O)N2Cc3ccc(OCCN(C)C)cc3C2)cc1 | Active | Active |
| CC(C)c1cc(Nc2cc(O)cc(O)c2C(=O)N2Cc3ccccc3C2)n(C)n1 | Active | Active |
| Cc1cc(Nc2cc(O)cc(O)c2C(=O)N2Cc3ccccc3C2)n(Cc2ccccc2C)n1 | Active | Active |

| Compound | Activity [1] | Activity [2] |
| --- | --- | --- |
| COc1ccc(Cn2nc(C)cc2Nc2cc(O)cc(O)c2C(=O)N2Cc3cccnc3C2)cc1 | Active | Active |
| O=C(c1c(O)cc(O)cc1Nc1ccnn1CC1CCCCC1)N1Cc2ccccc2C1 | Active | Active |
| CC(C)n1nccc1Nc1cc(O)cc(O)c1C(=O)N1Cc2cn[nH]c2C1 | Active | Active |
| Cn1nc(-c2ccccc2)cc1Nc1cc(O)cc(O)c1C(=O)N1Cc2cccnc2C1 | Active | Active |
| O=C(c1c(O)cc(O)cc1Nc1ccnn1CC1CCCCC1)N1Cc2cn[nH]c2C1 | Active | Active |
| Cn1nccc1Nc1cc(O)cc(O)c1C(=O)N1Cc2ccccc2C1 | Active | Active |
| O=C(c1c(O)cc(O)cc1Nc1ccnn1Cc1ccco1)N1Cc2ccccc2C1 | Active | Active |
| COc1ccc(Cn2nc(-c3ccccc3)cc2Nc2cc(O)cc(O)c2C(=O)N2CCCC2)cc1 | Active | Active |
| COc1ccc(Cn2nc(-c3ccccc3)cc2Nc2cc(O)cc(O)c2C(=O)N2Cc3cccnc3C2)cc1 | Active | Active |
| COc1ccc(Cn2nc(C(C)(C)C)cc2Nc2cc(O)cc(O)c2C(=O)N2Cc3ccccc3C2)cc1 | Active | Active |
| COc1ccc(Cn2nc(-c3ccccc3)cc2Nc2cc(O)cc(O)c2C(=O)N2Cc3ccc(F)cc3C2)cc1 | Active | Active |
| Cn1nc(-c2cccc(C(F)(F)F)c2)cc1Nc1cc(O)cc(O)c1C(=O)N1Cc2cccnc2C1 | Active | Active |
| COc1ccc(Cn2nc(-c3ccoc3)cc2Nc2cc(O)cc(O)c2C(=O)N2Cc3cn[nH]c3C2)cc1 | Active | Active |
| O=C(c1c(O)cc(O)cc1Nc1ccnn1C1CCCCC1)N1Cc2cn[nH]c2C1 | Active | Active |
| COc1ccc(Cn2ncc(C(C)C)c2Nc2cc(O)cc(O)c2C(=O)N2Cc3ccccc3C2)cc1 | Active | Active |
| O=C(c1c(O)cc(O)cc1Nc1ccnn1Cc1cccnc1)N1Cc2cccnc2C1 | Active | Active |
| COc1ccc(Cn2nc(C3CC3)cc2Nc2cc(O)cc(O)c2C(=O)N2Cc3cccnc3C2)cc1 | Active | Active |
| Cn1nc(-c2ccc(C(F)(F)F)cc2)cc1Nc1cc(O)cc(O)c1C(=O)N1Cc2cccnc2C1 | Active | Active |
| COc1ccc(Cn2nc(-c3ccoc3)cc2Nc2cc(O)cc(O)c2C(=O)N2Cc3cccnc3C2)cc1 | Active | Active |
| Cn1nccc1Nc1cc(O)cc(O)c1C(=O)N1Cc2cccnc2C1 | Active | Active |
| COc1ccc(Cn2nc(C)cc2Nc2cc(O)cc(O)c2C(=O)N2Cc3ccc(N4CCN(C)CC4)cc3C2)cc1 | Active | Active |
| COc1ccc(Cn2nc(C)cc2Nc2cc(O)cc(O)c2C(=O)N2Cc3ccc(F)cc3C2)cc1 | Active | Active |
| Cc1ccc(-c2cc(Nc3cc(O)cc(O)c3C(=O)N3Cc4cccnc4C3)n(C)n2)cc1 | Active | Active |

| Compound | Activity [1] | Activity [2] |
| --- | --- | --- |
| Cc1ccc(-c2cc(Nc3cc(O)cc(O)c3C(=O)N3Cc4ccccc4C3)n(C)n2)cc1 | Active | Active |
| O=C(c1c(O)cc(O)cc1Nc1ccnn1Cc1ccccc1)N1Cc2cn[nH]c2C1 | Active | Active |
| Cn1nc(-c2ccc(C(C)(C)C)cc2)cc1Nc1cc(O)cc(O)c1C(=O)N1Cc2cccnc2C1 | Active | Active |
| Cn1nc(-c2ccc(C(F)(F)F)cc2)cc1Nc1cc(O)cc(O)c1C(=O)N1Cc2cn[nH]c2C1 | Active | Active |
| COc1ccc(Cn2nc(C3CCCC3)cc2Nc2cc(O)cc(O)c2C(=O)N2Cc3cn[nH]c3C2)cc1 | Active | Active |
| CC(C)Cn1nccc1Nc1cc(O)cc(O)c1C(=O)N1Cc2cccnc2C1 | Active | Active |
| Cn1nc(C2CCCCC2)cc1Nc1cc(O)cc(O)c1C(=O)N1Cc2ccccc2C1 | Active | Active |
| COc1ccc(Cn2nc(C)cc2Nc2cc(O)cc(O)c2C(=O)N2Cc3ccccc3C2)cc1 | Active | Active |
| COc1ccc(Cn2ncc(Cc3ccccc3)c2Nc2cc(O)cc(O)c2C(=O)N2Cc3ccccc3C2)cc1 | Active | Active |
| CC(C)c1ccc(Cn2nccc2Nc2cc(O)cc(O)c2C(=O)N2Cc3cccnc3C2)cc1 | Active | Active |
| Cn1nc(-c2ccc(C(F)(F)F)cc2)cc1Nc1cc(O)cc(O)c1C(=O)N1Cc2ccccc2C1 | Active | Active |
| Cn1nccc1Nc1cc(O)cc(O)c1C(=O)N1Cc2cn[nH]c2C1 | Active | Active |
| O=C(c1c(O)cc(O)cc1Nc1ccnn1Cc1cccnc1)N1Cc2cn[nH]c2C1 | Active | Active |
| CC(C)c1ccc(Cn2nccc2Nc2cc(O)cc(O)c2C(=O)N2Cc3cn[nH]c3C2)cc1 | Active | Active |
| O=C(c1c(O)cc(O)cc1Nc1ccnn1-c1ccccc1)N1Cc2cccnc2C1 | Active | Active |
| CC(C)(C)n1nc(-c2ccccc2)cc1Nc1cc(O)cc(O)c1C(=O)N1Cc2cn[nH]c2C1 | Active | Active |
| O=C(c1c(O)cc(O)cc1Nc1ccnn1Cc1ccc(C(F)(F)F)cc1)N1Cc2cccnc2C1 | Active | Active |
| CC(C)c1cc(Nc2cc(O)cc(O)c2C(=O)N2Cc3cn[nH]c3C2)n(C)n1 | Active | Active |
| COc1ccc(Cn2nc(C(C)C)cc2Nc2cc(O)cc(O)c2C(=O)N2Cc3cn[nH]c3C2)cc1 | Active | Active |
| CC(C)Cn1nc(-c2ccccc2)cc1Nc1cc(O)cc(O)c1C(=O)N1Cc2cn[nH]c2C1 | Active | Active |
| O=C(c1c(O)cc(O)cc1Nc1cc(-c2ccccc2)nn1C1CCCCC1)N1Cc2cccnc2C1 | Active | Active |
| Cn1nc(-c2ccccc2)cc1Nc1cc(O)cc(O)c1C(=O)N1Cc2ccccc2C1 | Active | Active |
| Cn1nc(-c2ccccc2)cc1Nc1cc(O)cc(O)c1C(=O)N1Cc2cn[nH]c2C1 | Active | Active |
